# According to ChEMBL document CHEMBL1201862, “PubChem BioAssay data set” (2004):
# Activity calls are given as the source filed them.
# Tests used:
# NS3 = NS3 (Hepatitis C virus, UniProt A3EZJ3); experiment: PubChem AID 2173; design: species or system Hepacivirus hominis
# [1] = biological target: T1, Short transient receptor potential channel 4 (Mus musculus, UniProt Q9QUQ5); experiment: calcium entry via TRPC4 opening agents – cell-based, HEK293 TRPC4/mu-opioid, Fluo-4 calcium, dose response (AID 434937); format: functional
# T1 sequence (Q9QUQ5 whole entry): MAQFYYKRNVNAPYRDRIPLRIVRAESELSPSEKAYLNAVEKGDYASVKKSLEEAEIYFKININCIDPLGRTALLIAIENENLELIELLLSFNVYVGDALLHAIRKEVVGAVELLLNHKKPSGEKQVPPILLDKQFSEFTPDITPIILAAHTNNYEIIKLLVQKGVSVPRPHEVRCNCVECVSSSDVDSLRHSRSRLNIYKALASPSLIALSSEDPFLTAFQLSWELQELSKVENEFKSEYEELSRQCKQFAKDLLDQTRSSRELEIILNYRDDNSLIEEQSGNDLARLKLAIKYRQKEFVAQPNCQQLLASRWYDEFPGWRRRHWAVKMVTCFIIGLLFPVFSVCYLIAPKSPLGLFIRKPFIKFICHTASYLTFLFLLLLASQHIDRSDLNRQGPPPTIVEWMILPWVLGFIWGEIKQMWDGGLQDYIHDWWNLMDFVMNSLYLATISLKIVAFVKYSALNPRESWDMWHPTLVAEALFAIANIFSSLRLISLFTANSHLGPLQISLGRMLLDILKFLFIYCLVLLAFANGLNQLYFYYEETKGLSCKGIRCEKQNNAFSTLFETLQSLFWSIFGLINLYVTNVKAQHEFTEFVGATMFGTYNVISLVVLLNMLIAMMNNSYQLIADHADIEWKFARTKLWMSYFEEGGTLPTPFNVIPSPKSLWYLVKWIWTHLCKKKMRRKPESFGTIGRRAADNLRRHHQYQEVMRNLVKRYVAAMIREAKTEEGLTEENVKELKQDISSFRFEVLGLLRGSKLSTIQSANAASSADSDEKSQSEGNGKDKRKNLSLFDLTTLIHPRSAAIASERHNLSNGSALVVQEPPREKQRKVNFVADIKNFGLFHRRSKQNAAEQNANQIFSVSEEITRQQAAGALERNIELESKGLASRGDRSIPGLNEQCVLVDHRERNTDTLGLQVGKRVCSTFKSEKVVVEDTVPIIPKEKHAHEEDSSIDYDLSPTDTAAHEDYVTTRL
# [2] = decrease of insulin promoter-GFP reporter – imaging, high-content screening, mouse beta cells (AID 1628); format: functional; conditions: MIN6
# [3] = MIN6 cell viability loss – mouse insulinoma, cytotoxicity control, dose response (AID 2122); format: functional;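 further: confirmatory high-throughput counterscreen run to flag cytotoxic compounds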
# [4] = biological target: Glyceraldehyde-3-phosphate dehydrogenase (Homo sapiens, UniProt P04406)
# Bcl-2-related protein A1 [5] = biological target: T2, Bcl-2-related protein A1 (Mus musculus, UniProt Q07440); experiment: small-molecule antagonists of Bfl-1/BH3 interaction – biochemical, TR-FRET, mouse Bfl-1, confirmation (AID 621);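 further: TR-FRET binding of GST-Bfl-1 to FITC-labelled Bid peptide via terbium antibody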
# T2 sequence (Q07440 whole entry): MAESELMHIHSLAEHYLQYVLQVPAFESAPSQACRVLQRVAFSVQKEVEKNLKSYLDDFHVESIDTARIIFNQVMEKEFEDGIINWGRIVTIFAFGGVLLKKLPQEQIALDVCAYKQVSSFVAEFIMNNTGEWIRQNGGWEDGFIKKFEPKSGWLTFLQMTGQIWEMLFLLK
# Bcl-2-related protein A1 [6] = biological target: T2, Bcl-2-related protein A1; experiment: Bfl-1 binding inhibitors, SAR follow-up, biochemical, fluorescence polarization (AID 1070)
# [7] = viability of uninfected HEp-2 cells – cell-based, HTS, cytotoxicity control for RSV inhibitor project, dose response (AID 2410); format: functional; conditions: human respiratory syncytial virus
# Estrogen receptor beta = Estrogen receptor beta (Homo sapiens, UniProt Q92731); experiment: blockers of SRC-3 recruitment to ERβ – biochemical, ELISA, streptavidin-HRP readout, orthogonal assay, confirmation (AID 1060)
# [8] = tested on: Streptococcus sp. 'group A'; experiment: Streptococcus pyogenes SK(-)GAS viability under kanamycin – luminescence, BacTiterGlo, confirmation, counter-screen for streptokinase expression inhibitor project, dose response (AID 1900); format: functional, organism-based
# Streptokinase A = biological target: T3, Streptokinase A (Streptococcus pyogenes serotype M1, UniProt P10520); experiment: viability-normalized secreted streptokinase activity reduction – plasminogen activation absorbance, OD405, dose response (AID 1914); format: functional, Streptococcus pyogenes M1 GAS;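 further: secreted streptokinase activity via plasminogen activation per viability signal from cell pellet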
# T3 sequence (P10520 whole entry): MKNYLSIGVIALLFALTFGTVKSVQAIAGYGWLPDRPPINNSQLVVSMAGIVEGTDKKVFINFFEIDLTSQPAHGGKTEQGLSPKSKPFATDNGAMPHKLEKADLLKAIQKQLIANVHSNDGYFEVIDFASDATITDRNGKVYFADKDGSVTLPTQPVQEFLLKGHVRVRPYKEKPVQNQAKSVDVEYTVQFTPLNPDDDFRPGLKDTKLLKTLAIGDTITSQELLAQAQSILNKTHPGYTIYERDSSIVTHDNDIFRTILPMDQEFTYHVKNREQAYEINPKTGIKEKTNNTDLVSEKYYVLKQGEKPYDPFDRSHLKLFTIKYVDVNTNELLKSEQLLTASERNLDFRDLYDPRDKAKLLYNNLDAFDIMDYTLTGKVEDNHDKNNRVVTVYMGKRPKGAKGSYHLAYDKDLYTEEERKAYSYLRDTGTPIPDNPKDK
# Streptococcus = experiment: GAS UMAA2166 growth inhibition – luminescence, BacTiterGlo, counter-screen for streptokinase expression inhibitor project, dose response (AID 1915); format: functional, organism-based;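 further: potency for reduction of bacterial viability or growth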
# [9] = Luminescence Cell-Based Dose Retest to Confirm Inhibitors of Cancer Stem Cells. [Related pubchem assays (depositor defined):AID2717, AID2721]; format: functional; conditions: Homo sapiens
# Vero [10] = experiment: cells; format: functional, cell-based; conditions: Chlorocebus sabaeus
# Vero [11] = experiment: cells; format: functional; conditions: Chlorocebus sabaeus
# [12] = biological target: G-protein coupled receptor 55 (Homo sapiens, UniProt Q9Y2T6); experiment: inhibition of LPI-stimulated GPR55 beta-arrestin translocation – imaging, U2OS, beta-arrestin-GFP, LPI agonist, primary screen (AID 2013); format: functional;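 further: antagonist potency measured as reduced agonist-driven arrestin aggregation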
# Estrogen receptor = biological target: T4, Estrogen receptor (Homo sapiens, UniProt P03372);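 further: potency for inhibiting coactivator peptide recruitment to the receptor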
# T4 sequence (P03372 whole entry): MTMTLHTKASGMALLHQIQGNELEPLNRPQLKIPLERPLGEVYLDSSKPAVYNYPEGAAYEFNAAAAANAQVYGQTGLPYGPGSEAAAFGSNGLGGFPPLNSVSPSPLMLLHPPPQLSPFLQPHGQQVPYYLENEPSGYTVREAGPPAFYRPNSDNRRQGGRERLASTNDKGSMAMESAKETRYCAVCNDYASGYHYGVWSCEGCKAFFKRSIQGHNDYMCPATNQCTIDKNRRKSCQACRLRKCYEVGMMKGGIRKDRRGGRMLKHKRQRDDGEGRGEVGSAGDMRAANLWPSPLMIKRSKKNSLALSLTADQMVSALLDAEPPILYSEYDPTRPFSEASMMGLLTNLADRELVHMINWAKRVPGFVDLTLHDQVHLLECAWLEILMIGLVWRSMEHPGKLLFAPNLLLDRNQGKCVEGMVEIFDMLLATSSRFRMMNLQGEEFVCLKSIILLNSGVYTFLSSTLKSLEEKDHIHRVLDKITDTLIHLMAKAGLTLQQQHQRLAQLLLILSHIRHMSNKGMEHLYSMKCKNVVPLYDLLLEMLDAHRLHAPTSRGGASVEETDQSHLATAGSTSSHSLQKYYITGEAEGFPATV
# HEK293 [13] = experiment: inhibition of NOD1-driven NF-kB reporter – cell-based, luminescence, uHTS, primary screen (AID 1578); format: functional; conditions: Homo sapiens
# HEK293 [14] = experiment: cells; format: functional, cell-based; conditions: Homo sapiens
# HEK293 [15] = experiment: cells; format: functional, cell-based; conditions: Homo sapiens; remark: listed apart in the source
# HEK293 [16] = experiment: NOD2 signaling inhibitors in MDP-stimulated cells, cell-based, uHTS, luminescence (AID 2001); format: functional; conditions: Homo sapiens
# [17] = biological target: T5, Carboxy-terminal domain RNA polymerase II polypeptide A small phosphatase 1 (Homo sapiens, UniProt Q9GZU7); experiment: CTDSP1 inhibitors, concentration-response, biochemical, absorbance readout, ultra-high-throughput screen actives (AID 540297); format: functional
# T5 sequence (Q9GZU7 whole entry): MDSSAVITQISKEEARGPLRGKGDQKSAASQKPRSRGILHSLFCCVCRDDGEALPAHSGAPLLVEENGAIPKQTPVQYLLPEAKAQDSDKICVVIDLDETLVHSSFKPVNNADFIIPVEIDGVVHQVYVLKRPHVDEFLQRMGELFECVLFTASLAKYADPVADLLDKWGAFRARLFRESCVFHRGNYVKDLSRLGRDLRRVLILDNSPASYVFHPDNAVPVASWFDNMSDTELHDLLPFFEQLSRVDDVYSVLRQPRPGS
# [18] = biological target: T6, Mannose-6-phosphate isomerase (Homo sapiens, UniProt P34949); experiment: MPI inhibition at elevated mannose 6-phosphate – biochemical, fluorescence intensity, high mannose 6-phosphate, primary screen (AID 1220)
# T6 sequence (P34949 whole entry): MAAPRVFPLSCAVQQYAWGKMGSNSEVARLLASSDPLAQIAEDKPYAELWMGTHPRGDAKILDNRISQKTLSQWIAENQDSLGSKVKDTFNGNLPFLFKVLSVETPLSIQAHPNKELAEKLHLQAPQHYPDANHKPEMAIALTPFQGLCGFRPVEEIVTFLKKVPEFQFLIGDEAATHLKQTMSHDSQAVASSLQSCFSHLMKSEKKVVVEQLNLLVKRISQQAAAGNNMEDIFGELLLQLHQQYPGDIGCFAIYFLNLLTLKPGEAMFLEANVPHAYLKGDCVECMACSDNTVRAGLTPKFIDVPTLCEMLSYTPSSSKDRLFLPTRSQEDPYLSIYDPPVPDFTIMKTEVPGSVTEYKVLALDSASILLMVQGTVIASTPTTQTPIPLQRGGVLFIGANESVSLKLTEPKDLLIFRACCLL
# [19] = biological target: Eukaryotic translation initiation factor 4E (Mus musculus, UniProt P63073); experiment: blockers of eIF4G binding by eIF4E – biochemical, TR-FRET, dose response (AID 855); format: functional;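 further: potency for disrupting eIF4E binding to eIF4GI seen as loss of FRET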
# 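Wherever AC50 is given: cells exposed to compound for roughly 70 hours or longer before luminescence read.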
# Sequence of Glyceraldehyde-3-phosphate dehydrogenase (P04406 whole entry): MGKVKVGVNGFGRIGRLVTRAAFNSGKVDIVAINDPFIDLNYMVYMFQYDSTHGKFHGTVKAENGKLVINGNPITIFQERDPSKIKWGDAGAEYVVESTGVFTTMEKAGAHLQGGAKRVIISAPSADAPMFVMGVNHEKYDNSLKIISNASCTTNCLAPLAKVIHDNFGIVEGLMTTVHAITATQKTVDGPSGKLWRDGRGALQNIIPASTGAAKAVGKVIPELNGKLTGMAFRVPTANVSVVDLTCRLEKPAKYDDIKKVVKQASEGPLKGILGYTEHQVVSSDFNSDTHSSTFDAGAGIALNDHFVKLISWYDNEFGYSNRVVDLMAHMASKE
# Sequence of G-protein coupled receptor 55 (Q9Y2T6 whole entry): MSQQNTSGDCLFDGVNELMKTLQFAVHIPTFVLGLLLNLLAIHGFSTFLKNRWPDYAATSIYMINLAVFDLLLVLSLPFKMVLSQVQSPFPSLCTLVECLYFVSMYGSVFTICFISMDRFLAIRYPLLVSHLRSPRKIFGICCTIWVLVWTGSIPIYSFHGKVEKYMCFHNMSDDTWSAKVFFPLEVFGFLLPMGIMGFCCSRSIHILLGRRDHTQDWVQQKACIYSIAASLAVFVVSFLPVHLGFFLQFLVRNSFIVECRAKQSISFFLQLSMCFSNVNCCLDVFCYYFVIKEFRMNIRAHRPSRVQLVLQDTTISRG
# Sequence of Estrogen receptor beta (Q92731 whole entry): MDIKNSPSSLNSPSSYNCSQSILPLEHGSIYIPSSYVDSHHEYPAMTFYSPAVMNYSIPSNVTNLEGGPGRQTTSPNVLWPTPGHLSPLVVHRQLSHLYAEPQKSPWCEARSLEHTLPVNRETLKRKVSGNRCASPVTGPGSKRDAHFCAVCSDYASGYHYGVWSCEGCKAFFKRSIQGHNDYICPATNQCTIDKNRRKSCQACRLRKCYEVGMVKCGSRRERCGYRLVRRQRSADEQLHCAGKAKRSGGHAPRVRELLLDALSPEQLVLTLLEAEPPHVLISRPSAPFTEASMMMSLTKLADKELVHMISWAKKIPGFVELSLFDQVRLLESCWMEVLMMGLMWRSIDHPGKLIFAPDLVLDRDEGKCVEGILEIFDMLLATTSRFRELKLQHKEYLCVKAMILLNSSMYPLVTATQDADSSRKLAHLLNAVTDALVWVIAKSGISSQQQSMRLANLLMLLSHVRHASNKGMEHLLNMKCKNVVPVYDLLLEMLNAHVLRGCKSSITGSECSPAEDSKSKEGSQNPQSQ
# Sequence of Eukaryotic translation initiation factor 4E (P63073 whole entry): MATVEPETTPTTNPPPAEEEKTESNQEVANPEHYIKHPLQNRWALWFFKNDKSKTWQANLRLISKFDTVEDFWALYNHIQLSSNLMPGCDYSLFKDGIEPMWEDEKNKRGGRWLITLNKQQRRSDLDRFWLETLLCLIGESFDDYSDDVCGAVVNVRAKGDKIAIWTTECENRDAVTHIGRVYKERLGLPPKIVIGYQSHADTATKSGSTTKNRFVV
# Sequence of NS3 (A3EZJ3 whole entry): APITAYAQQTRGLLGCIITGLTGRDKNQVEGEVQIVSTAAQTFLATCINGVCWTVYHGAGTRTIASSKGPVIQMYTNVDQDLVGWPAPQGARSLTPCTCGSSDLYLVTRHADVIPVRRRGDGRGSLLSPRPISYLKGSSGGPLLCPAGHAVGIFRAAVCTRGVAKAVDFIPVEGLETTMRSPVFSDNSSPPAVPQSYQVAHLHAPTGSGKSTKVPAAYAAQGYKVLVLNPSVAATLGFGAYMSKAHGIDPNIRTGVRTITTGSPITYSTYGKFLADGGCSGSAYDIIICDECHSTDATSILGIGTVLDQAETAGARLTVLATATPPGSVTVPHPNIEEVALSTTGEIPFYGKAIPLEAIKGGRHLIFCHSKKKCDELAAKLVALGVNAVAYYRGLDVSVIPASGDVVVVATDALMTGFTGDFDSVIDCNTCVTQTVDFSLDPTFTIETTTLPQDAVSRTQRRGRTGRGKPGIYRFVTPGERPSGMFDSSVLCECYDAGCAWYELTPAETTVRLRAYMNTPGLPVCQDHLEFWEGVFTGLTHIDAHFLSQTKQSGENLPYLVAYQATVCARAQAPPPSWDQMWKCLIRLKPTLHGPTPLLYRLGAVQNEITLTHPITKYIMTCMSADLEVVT
compound,measurement,setting,value
Cc1cccc(N2C(=O)C(O)=C(C(=O)c3cccs3)C2c2cccc(Oc3ccccc3)c2)n1 (centres undefined),IC50,NS3,3.02 µM (active)
Cc1cc(OCCCn2ccnc2)ccc1[N+](=O)[O-],EC50,[1],4.73 µM (active)
C[C@H]1CC[C@H]2C(=O)N3[C@H](c4ccccc4Br)[C@@H](C)CC[C@H]3C(=O)N2[C@@H]1c1ccccc1Br,IC50,[2],2.32 µM (active)
same,IC50,[3],4.2 µM (active)
O=C1C(Cl)=C(N2CCN(CCNCc3ccccn3)CC2)C(=O)N1c1ccc(Cl)c(Cl)c1,IC50,[4],> 100 µM (not active)
same,IC50,Bcl-2-related protein A1 [5],8.14 µM (active)
same,IC50,Bcl-2-related protein A1 [6],16.3 µM (active)
Cc1sc2nc(C3CC3)nc(SCC(=O)N3c4ccccc4CC3C)c2c1C (centres undefined),CC50,[7],7.61 µM (active)
same,IC50,cells,3.98 µM (active)
O=C(Nc1ccc(F)cc1F)c1noc2c1CCC2,IC50,Estrogen receptor beta,> 50 µM (not active)
N#Cc1c(NC(=O)CN2CCN(c3ccccc3)CC2)sc2c1CCC2,IC50,Estrogen receptor beta,44.5 µM (not active)
CN1CCN(C2=C(Cl)C(=O)N(c3c(Cl)cccc3Cl)C2=O)CC1,IC50,[4],> 100 µM (not active)
same,IC50,Bcl-2-related protein A1 [5],3.72 µM (active)
same,IC50,Bcl-2-related protein A1 [6],13.4 µM (active)
OCCC1CN(Cc2cccn2-c2nccs2)CCN1CCc1ccccc1 (centres undefined),IC50,cells,30.3 µM (active)
O=C(O)c1ccccc1Nc1ccc(OC(F)F)cc1,CC50,[7],23.8 µM (active)
same,IC50,cells,40.9 µM (active)
Brc1ccc2[nH]c3c(N4CCc5ccccc5C4)ncnc3c2c1,IC50,[2],1.43 µM (active)
same,EC50,[8],5.55 µM (active)
same,IC50,[3],1.28 µM (active)
same,EC50,Streptokinase A,10.9 µM (active)
same,EC50,Streptococcus,> 150 µM (not active)
same,AC50,[9],20.4 µM (active)
O=C1C(Cl)=C(Cl)C(=O)N1c1cccc([N+](=O)[O-])c1,IC50,[4],> 100 µM (not active)
same,IC50,Bcl-2-related protein A1 [5],16.4 µM (active)
same,IC50,Bcl-2-related protein A1 [6],11.9 µM (active)
Cc1cc2cc(CN(CCN(C)C)C(S)=NCc3ccco3)c(O)nc2cc1C,IC50,Vero [10],10.4 µM (active)
same,CC50,Vero [11],> 25 µM (active)
CC(C)N(C(=O)CSc1nc2ccccc2n1-c1ccccc1)C(C)C,IC50,[12],3.82 µM (active)
same,AC50,[9],5.12 µM (active)
C=CCn1c(=O)[nH]c2cc(C(=O)N3CCN(c4ccc(C(C)=O)cc4)CC3)ccc2c1=O,IC50,Estrogen receptor,> 50 µM (not active)
COc1ccc(C(CNC(=O)Cc2ccc(-c3ccccc3)cc2)N(C)C)cc1 (centres undefined),EC50,[1],0.267 µM (active)
O=C(Nc1ccccc1Cl)C(Cl)C(=O)c1ccccc1 (centres undefined),IC50,[12],11.2 µM (inactive)
CCCCCSc1nnc2c(n1)OC(c1cccn1C)N(C(C)=O)c1ccccc1-2 (centres undefined),EC50,[1],10.6 µM (active)
Cc1noc2ncnc(N3CCN(c4cccc(Cl)c4)CC3)c12,EC50,HEK293 [13],10.4 µM (active)
same,IC50,HEK293 [14],8.79 µM (active)
same,IC50,HEK293 [15],> 20 µM (inactive)
same,IC50,HEK293 [16],10.3 µM (inactive)
O=C(CSc1nc(-c2ccc(F)cc2)cs1)NC(=O)NCc1ccco1,IC50,Estrogen receptor,> 50 µM (not active)
same,IC50,[17],18.8 µM (active)
c1ccc2[nH]c(SN3CCOCC3)nc2c1,IC50,[18],> 50 µM (not active)
same,IC50,[19],27.5 µM (active)
COC(=O)c1cc(NC2c3ccccc3C(=O)N2c2ccc(Cl)cn2)cc(C(=O)OC)c1 (centres undefined),IC50,Estrogen receptor,> 50 µM (not active)
COc1ccc(-n2c(SCC(=O)/C(C#N)=C(\C)N)nc3ccccc3c2=O)cc1OC,IC50,cells,2.62 µM (active)
